# Measurements taken from patent US11207371B2, “Composition for improving or preventing nonalcoholic fatty liver” (KOHJIN LIFE SCIENCES CO., LTD., priority 2015, dated 2021).
# Columns and labels:
# [1] = test system: Mice (C57/B6J, 8 weeks old male) fed with high-fat food
# Description: Mice (C57/B6J, 8 weeks old male) were divided into 4 groups (5 animals each), and the first group (DB) was freely fed with ordinary food (Certified Diet “MF” manufactured by Oriental Yeast Co., ltd.). The second group (HFD) was freely fed with high-fat food (High Fat Diet 32, manufactured by CLEA Japan, Inc.), […].
# When the mouse was 20 weeks old, the body weight, the liver weight, the serum aspartate aminotransferase (AST), the alanine aminotransferase (ALT), the serum triglyceride (TG), the free fatty acid value (FFA) and the total cholesterol value (T-cho) were measured.
# [2] = test system: subjects who had NAFLD in 31 IU/L or more of ALT; settings: Case IDs 1 to 9 (group affected); at least one week after initiation; glutathione 300 mg per day orally
structure (smiles),measurement,setting,value
N[C@@H](CCC(=O)N[C@@H](CS)C(=O)NCC(=O)O)C(=O)O [glutathione],serum AST,"[1]; HFD6 (6 mg/kg/day) and HFD60 (60 mg/kg/day) groups in comparison to the HFD group, 20 weeks old, concentration dependent, FIG. 5A",significant decrease
same,serum ALT,"[1]; HFD6 (6 mg/kg/day) and HFD60 (60 mg/kg/day) groups in comparison to the HFD group, 20 weeks old, concentration dependent, FIG. 5B",significant decrease
same,serum TG (triglyceride value),"[1]; HFD6 (6 mg/kg/day) and HFD60 (60 mg/kg/day) groups in comparison to the HFD group, 20 weeks old, concentration dependent, FIG. 6A",significant decrease
same,serum FFA (free fatty acid value),"[1]; HFD6 (6 mg/kg/day) and HFD60 (60 mg/kg/day) groups in comparison to the HFD group, 20 weeks old, concentration dependent, FIG. 6B",significant decrease
same,serum T-cho (total cholesterol value),"[1]; HFD6 (6 mg/kg/day) and HFD60 (60 mg/kg/day) groups in comparison to the HFD group, 20 weeks old, concentration dependent, FIG. 6C",significant decrease
same,consumption amount of feed,"[1]; all of the groups (DB, HFD, HFD6, HFD60), FIG. 3A",no significant difference
same,consumption amount of water,"[1]; all of the groups (DB, HFD, HFD6, HFD60), FIG. 3B",no significant difference
same,liver weight,"[1]; high-fat food mice, glutathione 6 and 60 mg/kg/day in water, 20 weeks old, FIG. 4A",decreased dependently on the concentration
same,ratio of liver weight/body weight,"[1]; high-fat food mice, glutathione 6 and 60 mg/kg/day in water, 20 weeks old, FIG. 4B",decrease of the body weight ratio was also recognized
same,deposition of fat on the liver by high-fat food,"[1]; high-fat food mice, glutathione 6 and 60 mg/kg/day in water, concluded from liver weight",suppressed
same,body weight,"[1]; high-fat food mice, glutathione 6 or 60 mg/kg/day in water, FIGS. 1 and 2",decrease of the body weight was recognized
same,improvement of ALT after the administration versus before initiation (0 wk),[2],≥ 20%
